Assays:
Assay type in all cases: cell-based, human
RBCs [1] = assay: 65Zn2+ binding to RBCs; settings: 20 nM 65Zn2+ and 20 nM C-peptide
From the text: In some embodiments, e.g., those in which RBCs are contacted with C-peptide and Zn^2+, Fe^2+, and/or Cr^3+, in the presence of albumin or other C-peptide binding facilitator, Zn^2+, Fe^2+, and/or Cr^3+ uptake by RBCs can be measured (e.g., as a proxy for C-peptide uptake). Methods for detecting or measuring Zn^2+ uptake by RBCs are known in the art and described in, e.g., Horn et al. (1995) J Physiol 489(1):73-80 (describing the use of radiolabeled Zn^2+).
Additional samples from healthy controls and MS patients were analyzed for C-peptide binding, ATP release (10 healthy control patients, 10 MS patients, and 12 MS patients with glybenclamide), and Zn^2+ binding (11 healthy control patients and 22 MS patients). […] Here, 20 nM ^65Zn^2+ was incubated with the RBCs and 20 nM C-peptide. It is noteworthy that in 32 of these 34 samples, MS ATP release, C-peptide and/or Zn^2+ binding, was higher than the control samples analyzed simultaneously with the MS samples.

RBCs of MS patients = assay: ATP release from RBCs in a constricted environment (luciferin/luciferase chemiluminescence); settings: RBCs of MS patients incubated with the inhibitor; 7% hematocrit, flow; MS without inhibitor 344.7±46.8 nM, healthy controls 132.1±14.1 nM
From the text: In some embodiments, detecting or measuring the amount of C-peptide uptake can be accomplished by measuring ATP release by the RBCs contacted with C-peptide (and, optionally, Zn^2+, Fe^2+, and/or Cr^3+). Methods for measuring ATP release by RBCs are known in the art and described in, e.g., Faris and Spence (2008) Analyst 133(5):678-682; Fischer et al. (2003) Analyst 128(9):1163-1168; Petruzzi et al. (1994) Metabalism 43(4):435-440; Richards et al. (2013) Am J Physiol Regul Integr Comp Physiol 305(11):R1331-1336; and Richards et al. (2014) Am J Physiol Regul Integr Comp Physiol 307(7):R862-868. For example, ATP can be measured using a luciferin-luciferase assay. […] The light emitted from the reaction with ATP can be quantified using a luminometer. […]
Experiments were performed to determine if RBCs from MS patients (n=19) release more ATP than blood from healthy control patients (n=10) or blood from MS patents combined with the ATP release inhibitor, glybenclamide (Gly; n=12) when subjected to a constricted environment. […] The portion of tubing having the polyimide coating removed was positioned over a light-excluding box containing a photomultiplier tube (PMT), such that chemiluminescence generated from the ATP contacting the detection facilitator was detected. […]

RBCs [2] = assay: Effect of C-peptide binding facilitator on C-peptide binding to RBCs (Example 2 protocol); settings: for C-peptide binding to RBCs, MS: n = 1
Procedure: Similar studies were performed using serum albumin from other species (human, porcine, chicken); all of these forms deliver C-peptide to RBCs and are useful in the methods described herein.
All samples were handled in an identical manner. Briefly, about 10 mL of blood was drawn from each donor; the RBCs were purified by centrifugation; and the RBCs were suspended in physiological salt solution (PSS). Then RBCs were combined with PSS (containing bovine serum albumin (BSA) as a C-peptide binding facilitator) and C-peptide to generate a mixture having a 7% hematocrit, 20 nM C-peptide, and 75 μM BSA (0.5%). The mixture was allowed to incubate for 2 hours at 37° C. Next, the samples were centrifuged to separate the cells from solution, the solution was diluted 1:50 with double distilled water, and the amount of C-peptide remaining in the solution was determined by ELISA. This provided a value corresponding to the moles of C-peptide bound to the RBCs. […] Whereas blood from the healthy controls bound an average of 1.99±0.32 pmoles C-peptide, blood from MS patients and OND patients bound averages of 3.51±0.59 pmoles of C-peptide and 2.23±0.51 pmoles of C-peptide, respectively. As shown by p values of less than 0.001, the increase in C-peptide binding relative to healthy controls and OND patients is significant.
Experiments were performed to determine the effect of C-peptide binding facilitator concentration on C-peptide binding by RBCs. The protocol of Experiment 2 was repeated, but with increasing BSA concentrations. […] Only a slight increase in C-peptide binding is realized.
Experiments were performed to test various potential C-peptide binding facilitators. The experiments were performed as described in example 2, but the C-peptide binding facilitator, BSA, was replaced with other albumins (porcine serum albumin and ovalbumin) or other proteins (leptin, casein, transferrin, and collagen).

[3] = other protein in place of BSA, n = 3
[4] = other albumin in place of BSA, n = 4

`[65Zn+2]` [^65Zn^2+] was tested, and the “amount of 65Zn2+ able to bind with the RBCs” value (RBCs [1]; RBCs of MS patients) was 3.61±0.22 picomoles and the “amount of 65Zn2+ able to bind with the RBCs” value (RBCs [1]; RBCs of healthy controls) was 2.26±0.24 picomoles.

In the case of `COc1ccc(Cl)cc1C(=O)NCCc1ccc(S(=O)(=O)NC(=O)NC2CCCCC2)cc1` [glybenclamide], the ATP release (RBCs of MS patients) is reported as 65.3 ± 11.6 nM.

Work on bovine serum albumin [BSA] yielded a C-peptide binding (RBCs [2]; [BSA] 0.5%) of 2.14 ± 0.22 pmol, a C-peptide binding (RBCs [2]; [BSA] 1.0%) of 2.19 ± 0.16 pmol and a C-peptide binding (RBCs [2]; [BSA] 2.0%) of 2.26 ± 0.13 pmol.

For casein, the “C-peptide binding to RBCs, MS” value (RBCs [2]; other protein in place of BSA) was “No binding detected” and the “C-peptide binding to RBCs, Control” value (RBCs [2]; [3]) was “No binding detected”.

For collagen, the “C-peptide binding to RBCs, MS” value (RBCs [2]; other protein in place of BSA) was 0.56 pmol and the “C-peptide binding to RBCs, Control” value (RBCs [2]; [3]) was 0.21 ± 0.14 pmol.

With leptin the “C-peptide binding to RBCs, MS” value (RBCs [2]; other protein in place of BSA) was 0.97 pmol and the “C-peptide binding to RBCs, Control” value (RBCs [2]; [3]) was 0.74 ± 0.11 pmol.

With ovalbumin the “C-peptide binding to RBCs, MS” value (RBCs [2]; other albumin in place of BSA) was 0.67 pmol and the “C-peptide binding to RBCs, Control” value (RBCs [2]; [4]) was 0.39 ± 0.22 pmol.

In the case of transferrin, the “C-peptide binding to RBCs, MS” value (RBCs [2]; other protein in place of BSA) is reported as “No binding detected” and the “C-peptide binding to RBCs, Control” value (RBCs [2]; [3]) is reported as “No binding detected”.

B1: porcine serum albumin (protein, UniProt P08835 25-607, looked up)
Albumin: DTYKSEIAHRFKDLGEQYFKGLVLIAFSQHLQQCPYEEHVKLVREVTEFAKTCVADESAENCDKSIHTLFGDKLCAIPSLREHYGDLADCCEKEEPERNECFLQHKNDNPDIPKLKPDPVALCADFQEDEQKFWGKYLYEIARRHPYFYAPELLYYAIIYKDVFSECCQAADKAACLLPKIEHLREKVLTSAAKQRLKCASIQKFGERAFKAWSLARLSQRFPKADFTEISKIVTDLAKVHKECCHGDLLECADDRADLAKYICENQDTISTKLKECCDKPLLEKSHCIAEAKRDELPADLNPLEHDFVEDKEVCKNYKEAKHVFLGTFLYEYSRRHPDYSVSLLLRIAKIYEATLEDCCAKEDPPACYATVFDKFQPLVDEPKNLIKQNCELFEKLGEYGFQNALIVRYTKKVPQVSTPTLVEVARKLGLVGSRCCKRPEEERLSCAEDYLSLVLNRLCVLHEKTPVSEKVTKCCTESLVNRRPCFSALTPDETYKPKEFVEGTFTFHADLCTLPEDEKQIKKQTALVELLKHKPHATEEQLRTVLGNFAAFVQKCCAAPDHEACFAVEGPKFVIEIRGILA
For B1, the “C-peptide binding to RBCs, MS” value (RBCs [2]; other albumin in place of BSA) was 6.33 pmol and the “C-peptide binding to RBCs, Control” value (RBCs [2]; [4]) was 4.01 ± 1.01 pmol.

From patent US10627415B2, “Compositions and methods for diagnosing, monitoring, and treating an autoimmune disease” (BOARD OF TRUSTEES OF MICHIGAN STATE UNIVERSITY, priority 2015, dated 2020)
